This is an account of results in patent USRE48335E1, “Polymyxin derivatives as antimicrobial compounds” (priority 2014, dated 2020).

For one experiment, the system named is Enterobacter cloacae. The essentials: (§1)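 Using polymyxin B sulphate as comparator control, the trifluoroacetate-salt lipopeptides were assayed in CAMHB by broth microdilution to CLSI M100-S18, and MICs recorded.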
The subject of another experiment is Pseudomonas aeruginosa. The essentials:
as §1

In another experiment the test system is Acinetobacter baumannii. The essentials: as §1

In brackets after ≈: the same amount, converted by molar mass. Positions of bridges follow the written chain, without caps; N, C: chain ends. Non-standard residues stand in square brackets, D forms with d. Residues, ends and D or L forms follow the SMILES beside them. *: point of attachment. Phenylacetyl(3,4-Cl2) = O=C(Cc1ccc(Cl)c(Cl)c1)*; X32 = Cc1ccc(C(=O)*)c(Cl)c1; Heptanoyl = CCCCCCC(=O)*; Dab = NCC[C@H](N)C(=O)O; Abu = CC[C@H](N)C(=O)O; Dap = NC[C@H](N)C(=O)O

In the case of `CC[C@@H]1NC(=O)[C@@H](CC(C)C)NC(=O)[C@H](CCN)NC(=O)[C@@H](NC(=O)[C@H](CN)NC(=O)[C@@H](NC(=O)[C@H](CCN)NC(=O)c2ccc(C)cc2Cl)[C@@H](C)O)CCNC(=O)[C@H]([C@@H](C)O)NC(=O)[C@H](CCN)NC(=O)[C@H](CCN)NC1=O` [Compound 101] (X32-[Dab]T[Dap][Dab][Dab][dL][Abu][Dab][Dab]T; lactam 4-C), in the experiment with Enterobacter cloacae, the “Minimum inhibitory concentration, Ec FADDI-EC001” value was less than 0.125 µg/mL; the “Minimum inhibitory concentration, Ec FADDI-EC003” value is less than 0.125 µg/mL; the “Minimum inhibitory concentration, Ec FADDI-EC006” value is 0.25 µg/mL (≈ 0.219 µM). Moreover, in the experiment with Pseudomonas aeruginosa, the “Minimum inhibitory concentration, Pa ATCC 27853” value came to 0.5 µg/mL (≈ 0.439 µM); the “Minimum inhibitory concentration, Pa FADDI-PA022” value worked out at 2 µg/mL (≈ 1.75 µM); the “Minimum inhibitory concentration, Pa FADDI-PA025” value was 2 µg/mL (≈ 1.75 µM). Also, in the experiment on Acinetobacter baumannii, the “Minimum inhibitory concentration, Ab A ATCC 17978” value worked out at 0.5 µg/mL (≈ 0.439 µM); the “Minimum inhibitory concentration, Ab ATCC 19606” value was 0.5 µg/mL (≈ 0.439 µM); the “Minimum inhibitory concentration, Ab FADDI-AB034” value stood at 1 µg/mL (≈ 0.877 µM).
With `CCCCCCC(=O)N[C@@H](CCN)C(=O)N[C@H](C(=O)N[C@@H](CN)C(=O)N[C@H]1CCNC(=O)[C@H]([C@@H](C)O)NC(=O)[C@H](CCN)NC(=O)[C@H](CCN)NC(=O)[C@H]([C@@H](C)O)NC(=O)[C@@H](CC(C)C)NC(=O)[C@H](CCN)NC1=O)[C@@H](C)O` [Compound 44] (Heptanoyl-[Dab]T[Dap][Dab][Dab][dL]T[Dab][Dab]T; lactam 4-C), in the experiment on Enterobacter cloacae, the “Minimum inhibitory concentration, Ec FADDI-EC001” value came out at 0.25 µg/mL (≈ 0.224 µM); the “Minimum inhibitory concentration, Ec FADDI-EC003” value was less than 0.125 µg/mL; the “Minimum inhibitory concentration, Ec FADDI-EC006” value is less than 0.125 µg/mL. In the experiment on Pseudomonas aeruginosa, the “Minimum inhibitory concentration, Pa ATCC 27853” value amounted to 0.5 µg/mL (≈ 0.448 µM); the “Minimum inhibitory concentration, Pa FADDI-PA022” value turned out to be 1 µg/mL (≈ 0.897 µM); the “Minimum inhibitory concentration, Pa FADDI-PA025” value stood at 16 µg/mL (≈ 14.3 µM). Moreover, in the experiment with Acinetobacter baumannii, the “Minimum inhibitory concentration, Ab A ATCC 17978” value stood at 1 µg/mL (≈ 0.897 µM); the “Minimum inhibitory concentration, Ab ATCC 19606” value worked out at 1 µg/mL (≈ 0.897 µM); the “Minimum inhibitory concentration, Ab FADDI-AB034” value is 1 µg/mL (≈ 0.897 µM).
In the case of `CCCCCCC(=O)N[C@@H](CCN)C(=O)N[C@H](C(=O)N[C@@H](CN)C(=O)N[C@H]1CCNC(=O)[C@H]([C@@H](C)O)NC(=O)[C@H](CCN)NC(=O)[C@H](CCN)NC(=O)[C@H](C)NC(=O)[C@@H](CC(C)C)NC(=O)[C@H](CCN)NC1=O)[C@@H](C)O` [Compound 63] (Heptanoyl-[Dab]T[Dap][Dab][Dab][dL]A[Dab][Dab]T; lactam 4-C), in the experiment with Enterobacter cloacae, the “Minimum inhibitory concentration, Ec FADDI-EC001” value came out at 0.5 µg/mL (≈ 0.461 µM); the “Minimum inhibitory concentration, Ec FADDI-EC003” value was less than 0.125 µg/mL; the “Minimum inhibitory concentration, Ec FADDI-EC006” value came out at 0.5 µg/mL (≈ 0.461 µM). Besides, in the experiment on Pseudomonas aeruginosa, the “Minimum inhibitory concentration, Pa ATCC 27853” value came out at 0.5 µg/mL (≈ 0.461 µM); the “Minimum inhibitory concentration, Pa FADDI-PA022” value was 2 µg/mL (≈ 1.84 µM); the “Minimum inhibitory concentration, Pa FADDI-PA025” value was greater than 32 µg/mL. In addition, in the experiment on Acinetobacter baumannii, the “Minimum inhibitory concentration, Ab A ATCC 17978” value was 1 µg/mL (≈ 0.921 µM); the “Minimum inhibitory concentration, Ab ATCC 19606” value was determined as 2 µg/mL (≈ 1.84 µM); the “Minimum inhibitory concentration, Ab FADDI-AB034” value is 1 µg/mL (≈ 0.921 µM).
As for `CC[C@@H]1NC(=O)[C@@H](CC(C)C)NC(=O)[C@H](CCN)NC(=O)[C@@H](NC(=O)[C@H](CN)NC(=O)[C@@H](NC(=O)[C@H](CCN)NC(=O)Cc2ccc(Cl)c(Cl)c2)[C@@H](C)O)CCNC(=O)[C@H]([C@@H](C)O)NC(=O)[C@H](CCN)NC(=O)[C@H](CCN)NC1=O` [Compound 81] ({Phenylacetyl(3,4-Cl2)}-[Dab]T[Dap][Dab][Dab][dL][Abu][Dab][Dab]T; lactam 4-C), in the experiment on Enterobacter cloacae, the “Minimum inhibitory concentration, Ec FADDI-EC001” value amounted to 0.25 µg/mL (≈ 0.213 µM); the “Minimum inhibitory concentration, Ec FADDI-EC003” value was less than 0.125 µg/mL; the “Minimum inhibitory concentration, Ec FADDI-EC006” value is 0.25 µg/mL (≈ 0.213 µM). In the experiment with Pseudomonas aeruginosa, the “Minimum inhibitory concentration, Pa ATCC 27853” value is 2 µg/mL (≈ 1.7 µM); the “Minimum inhibitory concentration, Pa FADDI-PA022” value turned out to be 4 µg/mL (≈ 3.41 µM); the “Minimum inhibitory concentration, Pa FADDI-PA025” value is 1 µg/mL (≈ 0.852 µM). Further, in the experiment with Acinetobacter baumannii, the “Minimum inhibitory concentration, Ab A ATCC 17978” value was found to be 0.5 µg/mL (≈ 0.426 µM); the “Minimum inhibitory concentration, Ab ATCC 19606” value amounted to 1 µg/mL (≈ 0.852 µM); the “Minimum inhibitory concentration, Ab FADDI-AB034” value is 0.25 µg/mL (≈ 0.213 µM).
